Consider 10 molecules from patent publication US20200369996A1, “Bioreactor Screening Platform for Modelling Human Systems Biology and for Screening for Inotropic Effects of Agents on the Heart” (NOVOHEART LIMITED, priority 2017, published 2020).

“And” between values parts separate entries of the source, which are not always exact repeats. Identical values can stand only once. “Also recorded” adds a separate entry of the source. Like-named read-outs stand apart in the source and are kept apart here.

For data set [1], the system named is human ventricular cardiac tissue strips (hvCTS). Put plainly: hvCTS drug screening: twitch force under electrical pacing. The format is cell-based. The settings on record: for IC50: read-out: IC50, developed contractile force. Here is the method: One of ordinary skill in the art will recognize that the gels can be formed in any of a variety of sizes and shapes, and the molds used to form such gels can also be formed in any of a variety of sizes and shapes, depending on the intended use of the molded gel. The molded mixtures were then bathed with culture medium (DMEM supplemented with 10% newborn calf serum), and maintained in culture with daily half-medium exchanges. Inserts in the casting molds were removed at 48 hours, yielding a self-assembled hvCTS held between 0.5-mm-diameter circular PDMS posts at each end. It is apparent that the posts can be formed from any flexible material amenable to at least one form of sterilization are suitable. As noted above, the whole mold can be scaled up or down depending on the application, and the posts can also be scaled up or down. In general, the height of the posts would be similar to the height of a well (e.g., about 6 mm in an exemplary embodiment). Any of a wide variety of cross-sectional shapes is contemplated as being suitable for use in the system, apparatus and methods according to the disclosure. At 7 days after hvCTS creation, the hvCTS were used for drug screening.
Initially, pharmacological compounds were prepared for screening. Compounds for unblinded “open label” screening were purchased from Sigma and stock solutions at the highest possible concentrations were prepared according to the product information. Working concentrations over a 5-logarithmic range were prepared for each drug.
Working concentrations over a 5-logarithmic range were prepared for each drug according to the dose-range recommendation provided by the supplier.
New born calf serum containing medium was replaced with DMEM high glucose with HEPES without phenol red for optical measurement of generated force in hvCTS. […] The integrated flexible PDMS posts were used as force sensors, with the post deflection captured in real-time with a high-speed camera (100 frames/s) and LabView software (National Instruments, Austin, Tex., USA), applying a beam-bending equation from elasticity theory to calculate twitch force, as described previously^[2] and incorporated herein by reference. These measurements were obtained with the hvCTS maintained in the original molds where they were created with the hvCTS bathed in culture medium at 37° C. For each drug, force generated in response to 9 doses were measured with the drugs added to the hvCTS at half log increments in a cumulative manner. For each dose, the force generated at 0 Hz, 0.5 Hz, 1 Hz, 1.5 Hz and 2 Hz electrical pacing with field electrodes were measured.
Data analysis. Data were calculated and analyzed by a customized MatLab program. Force frequency curves for each drug were generated by plotting the generated force at 0.5 Hz, 1 Hz, 1.5 Hz and 2 Hz at different concentrations. All forces were normalized to the generated force at 0.5 Hz at the drug-free baseline condition (100%).
[…] The force generated under drug-free baseline condition was defined as 100%. The force generated at each drug concentration was then normalized to the generated force under the cognate drug-free baseline condition. The EC50 of each tested drug was estimated by fitting to a four-parameter dose-response equation given as: Y=Bottom+(Top-Bottom)/(1+10^((Log EC^50^−X)*HillSlope)), using commercial software (GraphPad Software Inc.). X is the logarithm of drug concentrations; […]; Top and Bottom are the Y values of the top and bottom plateaus of the curve itself; Baseline is the Y value that defines 0%—maximal inhibition by a standard drug. Hill Slope quantifies the steepness of the dose-response curve (the higher the Hill Slope, the steeper the curve).

The conditions of data set [2]: cited from earlier work.
Data set [3] has as its system isolated human atrial tissue. Conditions: isolated human atrial tissue from cardiac bypass; ref [6]; cited from earlier work.
Data set [4] has as its system human atrial and ventricular cardiomyocytes. Conditions: ref [8]; cited from earlier work.
Data set [5] deals with chick embryonic ventricular cells. The settings on record: ref [9]; cited from earlier work.
Another data set relates to human atrial trabeculae. The settings on record: ref [13]; cited from earlier work.
Another data set concerns rat atrial trabeculae. Conditions: ref [14]; cited from earlier work.
For data set [6], the system named is human ventricular cardiac organoid chamber (hvCOC). Description: hvCOC second tier screening: contractile (pump) function. It is filed as cell-based. From the text:
The initial steps of hvCOC fabrication are identical to that described above for hvCTS generation, from the dissociation of cell clusters to the preparation of the cells/collagen/Matrigel mix with 1 million cells/ml of human dermal fibroblasts.
To create the chamber, we followed a procedure similar to a published procedure^29, incorporated herein by reference. Briefly, the top of a 3×3×6 cm polystyrene bioreactor was modified to permit 9-gauge hypodermic tubing (Small Parts) to pass through the center and 4 mm diameter graphite electrodes (GraphiteStore) to flank the chamber on the edges of the bioreactor. A 6-Fr silicone balloon Foley catheter (Cook Medical), with the tip cut off and sealed with silicone caulking, was threaded through the 9-Gauge tubing into the center of the bioreactor. A small ring cut from hydrophilic porous polyethylene (Fisher Scientific) was placed just above the balloon on the hypodermic tubing.
The balloon was filled with distilled water to the desired chamber size and positioned concentrically within a 2% agarose mold created in phosphate-buffered saline (PBS) and made by inserting a 13 mm diameter test tube (VWR) into the center of the agarose. The agarose mold forms the outer mold boundary while the catheter balloon forms the inner boundary. […]

The subject of data set [7] is non-failing human myocardium. Conditions: ref [18]; cited from earlier work.
A further data set relates to EHT from hiPSC-CMs. The settings on record: drug screening with EHT from hiPSC-CMs; ref [3]; cited from earlier work.
In data set [8] the test system is sheep cardiac Purkinje fibers. The settings on record: ref [19]; cited from earlier work.
In data set [9] the test system is human right atrial trabeculae. Conditions: ref [21]; cited from earlier work.
For the next data set, the system named is hECT. Conditions: hECT in muscle bath; ref [28]; cited from earlier work.
Where [10] appears, read: Homo sapiens, 1 Hz pacing, blinded screening, Example 4.
Where [11] appears, read: Homo sapiens, Blinded, 1 Hz pacing, read-out: -log EC50 in hvCTS (converted).
[12] abbreviates: Homo sapiens, Blinded, 1 Hz pacing, read-out: EC50 in hvCTS (in brackets).
Where [13] appears, read: Homo sapiens, 1 Hz pacing, unblinded screening, Example 3.
Where [14] appears, read: Homo sapiens, Unblinded, 1 Hz pacing, read-out: -log EC50 in hvCTS (converted).
Where [15] appears, read: Homo sapiens, Unblinded, 1 Hz pacing, read-out: EC50 in hvCTS (in brackets).
[16] abbreviates: Homo sapiens, 1 Hz pacing, blinded screening, Example 4, read-out: EC50, developed contractile force.
[17] abbreviates: Homo sapiens, 1 Hz pacing, unblinded screening, Example 3, read-out: EC50, developed contractile force.

Turning to `CN(C)CCC=C1c2ccccc2CCc2ccccc21` [Amitriptyline], the IC50 (usually the concentration needed to halve the response being measured) in data set [1] (setting [10]) was 450000 nM. For the same molecule, the EC50 (usually the concentration at which the effect is half-maximal) in data set [1] (setting [11]) was 447000 nM; in [1] (setting [12]) it was 450000 nM. Besides, the “plasma concentration in psychiatric patients” value in data set [2] (ref [5]) was 98-208 ng/mL and 0.35-0.74 μM. For the same molecule, the 30-60% effective concentration in data set [3] is 40-400 μM [6], 30-60% effective concentration.

Regarding `CC(C)COCC(CN(Cc1ccccc1)c1ccccc1)N1CCCC1` (centres unmarked) [Bepridil], the IC50 in data set [1] (setting [13]) was found to be 3300 nM. The EC50 is 38000 nM in data set [1] (setting [14]) and 37900 nM in [1] (setting [15]). The relevant concentration in [4] was 100 μM [8], human atrial and ventricular.

Consider `Cn1c(=O)c2c(ncn2C)n(C)c1=O` [Caffeine], for which the EC50 in [1] (setting [16]) was 290 nM; in data set [1] (setting [11]), 288 nM; in data set [1] (setting [12]), 287 nM. For the same molecule, the relevant concentration in data set [5] is 20 mM [9], in chick embryonic ventricular cells.

Consider `CC(CCc1ccc(O)cc1)NCCc1ccc(O)c(O)c1` (centres unmarked) [Dobutamine], for which the EC50 in data set [1] (setting [16]) was 250 nM; in data set [1] (setting [17]), 15 nM; in data set [1] (setting [11]) it was 245 nM; in data set [1] (setting [12]) it was 250 nM; in [1] (setting [14]), 15.1 nM; in data set [1] (setting [15]), 15 nM. In data set [2] (ref [12]), the “peak plasma concentration with increased cardiac output” value was 147-152 ng/ml and 0.487-0.5 μM. For the same molecule, the relevant concentration with human atrial trabeculae was 0.217 μM [13], human atrial trabeculae.

In the case of `NCCc1ccc(O)c(O)c1` [Dopamine], the “effect on developed contractile force / contractility” value in data set [1] (blinded screening, Example 4) is listed as “did not significantly affect the developed contractile force”. The relevant concentration with rat atrial trabeculae is 20 μM [14], in rat atrial trabeculae.

Regarding `CC(C)NCC(O)c1ccc(O)c(O)c1` (centres unmarked) [Isoproterenol], the EC50 in [1] (Homo sapiens, 0.5 Hz pacing, Example 2 / FIG. 2C, read-out: EC50, developed contractile force) is 39 nM; in [1] (Homo sapiens, 1 Hz pacing, Example 2, read-out: EC50, developed contractile force) it was 59 nM; in data set [1] (setting [17]) it was 150 nM; in [1] (Homo sapiens, 1.5 Hz pacing, Example 2, read-out: EC50, developed contractile force) it was 54 nM; in data set [1] (Homo sapiens, 2 Hz pacing, Example 2 / FIG. 2C, read-out: EC50, developed contractile force), 31 nM; in data set [1] (setting [14]) it was 148 nM. For the same molecule, the EC50 is 150 nM in data set [1] (setting [15]) and 31 to 59 nM in [1] (Homo sapiens, across pacing frequencies 0.5-2 Hz, FIG. 2C, read-out: EC50 with increasing pacing frequency). Also, the Emax at 10 µM in [1] (Homo sapiens, 10 μM isoproterenol, hvCTS, read-out: maximal effect) stood at 113%; in data set [6] (Homo sapiens, 10 μM isoproterenol, hvCOC, read-out: maximal effect, pressure), 132%. In addition, the “effect on hvCOC function” value in data set [6] (stroke volume/stroke work, cardiac output, developed pressure) was “concentration-dependent increase in stroke volume, cardiac output, and developed pressure; also recorded: increase in stroke work, cardiac output and pressure volume loop”. In addition, the relevant concentration in data set [7] is 0.8 μM [18], non-failing human myocardium; in the data set with EHT from hiPSC-CMs, 5.4 nM [3], drug screening with EHT from hiPSC-CMs.

As for `C[C@@H]1CC(=O)NN=C1c1ccc(NN=C(C#N)C#N)cc1` [Levosimendan], the EC50 in data set [1] (setting [17]) was 150 nM; in data set [1] (setting [14]), 145 nM; in data set [1] (setting [15]), 150 nM. For the same molecule, the relevant concentration with human atrial trabeculae was 0.19 μM [13], human atrial trabeculae.

In the case of `CCN(CC)CC(=O)Nc1c(C)cccc1C` [Lidocaine], the IC50 in data set [1] (setting [10]) was determined as 440 nM. The EC50 was 437000 nM in data set [1] (setting [11]) and 439000 nM in data set [1] (setting [12]). For the same molecule, in [8], the “concentration with negative inotropic effect” value was 20 μM, [19] negative inotropic effect in sheep.

With `COCC(=O)O[C@]1(CCN(C)CCCc2nc3ccccc3[nH]2)CCc2cc(F)ccc2[C@@H]1C(C)C` [Mibefradil], the IC50 in data set [1] (setting [13]) was 38000 nM; in data set [9], 24500 nM. In addition, the EC50 in data set [1] (setting [14]) was 3160 nM; in data set [1] (setting [15]) it was 3390 nM.

`COc1ccc(CCN(C)CCCC(C#N)(c2ccc(OC)c(OC)c2)C(C)C)cc1OC` (centres unmarked) [Verapamil]: the IC50 in [9] is 123 nM. The relevant concentration with hECT is 0.61 μM [28], hECT in muscle bath.
